Legend:
N1E-115 cells [1] = assay: Immunofluorescence, mitotic spindle morphology; format: cell-based, mouse; conditions: 2.5 hr, control 30%
Description: Using IF, we next examined the mitotic phenotypes induced by CW069 in N1E-115 and NHDF cells, with a strong focus on centrosome numbers and mitotic spindle morphology. Antibodies against α-tubulin, CDK5RAP2, and DAPI were employed to visualize MTs, centrosomes, and DNA, respectively. We hypothesized that small-molecule inhibition of HSET would give rise to mitotic spindle defects similar to those reported after HSET knockdown by siRNA transfection ([Kwon et al., 2008]), and this was indeed the case. […] After treatment, the N1E-115 cells formed multipolar spindles due to a lack of centrosome clustering, consistent with HSET inhibition in cells with supernumerary centrosomes (Figure 4C).
[…] Prewarmed 4% paraformaldehyde in PBS was then added to each well to fix the cells before washing with PBS. Permeabilization and blocking was performed by incubating the slides with 1% BSA, 0.3% Triton X-100, 5% goat serum in PBS (PBS/B/0.3%T+5%GS) for 1 hr while shaking them at room temperature (RT). The slides were incubated with primary antibody solutions (mouse monoclonal anti-α-Tubulin [catalog number T9026; Sigma-Aldrich] and rabbit anti-CDK5RAP2 [catalog number A300-554A; Bethyl Laboratories]) at 4°C for 16 hr. […]

N1E-115 cells [2] = assay: Time-lapse microscopy, mitotic fate; format: cell-based, mouse
Method: Therefore, we interrogated cell division in N1E-115 cells using time-lapse imaging for further validation of target engagement. Treatment with 200 μM CW069 did indeed induce multipolar anaphase formation in N1E-115 cells (48%; Figure 5A) compared with the DMSO control (0%; Figure 5A). […] This is consistent with a previous report that catastrophic aneuploidy associated with multipolar divisions prompted cell death ([Kwon et al., 2008]). In order to corroborate selective inhibition of HSET by CW069 in cells, we treated HSET siRNA-depleted cells with 200 μM CW069 and compared them with DMSO/control siRNA-, DMSO/HSET siRNA-, and CW069/control siRNA-treated cells (Figure 5D).
Cells were synchronized in G2-M by incubation at 37°C and 5% CO2 for 24 hr with 9 μM of the CDK1 inhibitor RO-3306 (Merck). Cells were released by removal of the RO-3306 and four washings of 10 min each, at 37°C, with prewarmed culture media + 10% FBS. N1E-115 cells were transfected with siRNA (Supplemental Experimental Procedures) and imaged from 6 hr after transfection. Some RO-3306-synchronized cells were released with 200 μM CW069, 100 μM monastrol, or 0.2% DMSO, and imaging started immediately or 1 hr after treatment. Imaging was carried out for 24 hr, or for 4 hr in the case of the CW069/monastrol cotreatment. Imaging was conducted every 5 min in a humidified chamber with 37°C and 5% CO2, using a Nikon Eclipse TE2000-E microscope, and analyzed with NIS-Elements software (Nikon, Tokyo, Japan). The morphology of cells in mitosis and the mitotic fate (bipolar division, multipolar division, or cell death) were analyzed.

BT549 cells [3] = assay: Immunofluorescence, mitotic spindle morphology; format: cell-based, human; conditions: BT549, 100 μM and 200 μM, 2.5 hr
Method: (§1) […] Prewarmed 4% paraformaldehyde in PBS was then added to each well to fix the cells before washing with PBS. Permeabilization and blocking was performed by incubating the slides with 1% BSA, 0.3% Triton X-100, 5% goat serum in PBS (PBS/B/0.3%T+5%GS) for 1 hr while shaking them at room temperature (RT). The slides were incubated with primary antibody solutions (mouse monoclonal anti-α-Tubulin [catalog number T9026; Sigma-Aldrich] and rabbit anti-CDK5RAP2 [catalog number A300-554A; Bethyl Laboratories]) at 4°C for 16 hr. The slides were washed four times with PBS/B/0.3%T+5%GS and then incubated with secondary antibody solutions (anti-rabbit IgG Alexa Fluor 488 [catalog number A21206] and anti-mouse IgG Alexa Fluor 647 [catalog number A20990]; Invitrogen) and DAPI (catalog number D3571; Invitrogen) in deionized water (300 nM) in the dark at RT for 1 hr. After four washes with PBS/B/0.3%T+5%GS, the solution was replaced with PBS and the slides were stored at 4°C until imaging was performed. Images were gathered with the use of an ICys Research Imaging Cytometer (CompuCyte) or a tandem confocal microscope (Leica).
(§2) (1 picture or pasted object on this page, not shown here)

MDA-MB-231 cells = assay: Immunofluorescence, mitotic spindle morphology; format: cell-based, human; conditions: MDA-MB-231, 100 μM and 200 μM, 2.5 hr
Method: as §1, §2

MCF-7 cells [4] = assay: Immunofluorescence, mitotic spindle morphology; format: cell-based, human; conditions: MCF-7, 100 μM and 200 μM, 2.5 hr
Method: as §1, §2

BT549 cells [5] = assay: IncuCyte live-cell imaging, proliferation; format: cell-based, human; conditions: BT549, 100-350 μM
Description: (§3) In order to ascertain whether CW069 could more broadly reduce proliferation in a range of cancer cells, we carried out IncuCyte live-cell imaging on N1E-115 cells and BT549 (with lower but marked centrosome amplification) and MCF-7 (with normal centrosome numbers) breast cancer cells. Cells were imaged for 21 hr prior to treatment with DMSO control (0.2%) and various concentrations of CW069, and then imaged for a further 36 hr. […] It could also be due to another direct or indirect effect, and the role of HSET in the survival of cancer cells with normal centrosome numbers remains to be fully understood.
(§4) NHDF cells were obtained from PromoCell, and the N1E-115 and HeLa cells were obtained from ATCC/LGC Standards. The BT549, MCF-7 and MDA-MB-231 cells were kind gifts from the Caldas laboratory (CRUK Cambridge Institute) and were originally obtained from ATCC/LGC. All human cells were verified by STR genotyping and all tested negative for mycoplasma. […] Fluorescence was quantified using an Infinite 200 PRO plate-reader (Tecan) at a wavelength of 545 nm. […]
(§5) For live-cell imaging, plated cells were imaged prior to treatment for 24 hr and then after treatment for 72 hr. […] Data were analyzed as the percentage of original cell confluency in order to directly compare each compound treatment with the DMSO control.

MCF-7 cells [6] = assay: IncuCyte live-cell imaging, proliferation; format: cell-based, human; conditions: MCF-7, 100-350 μM
Description: as §3, §4, §5

N1E-115 cells [7] = assay: IncuCyte live-cell imaging, proliferation; format: cell-based, mouse; conditions: N1E-115, 100-350 μM; p = 0.0192 control vs 150 μM
Description: as §3, §4, §5

For O=C(O)c1cc(I)ccc1NC(=O)[C@H](Cc1ccccc1)NCc1ccccc1 [CW069], the multipolar spindle formation (N1E-115 cells [1]; N1E-115, 100 μM) was 98%, the multipolar spindle formation (N1E-115 cells [1]; N1E-115, 200 μM) was 86% and the “fate of daughter cells after aberrant divisions” value (N1E-115 cells [2]; N1E-115, 200 μM) was “the majority of daughter cells underwent apoptosis”. For the same compound, the multipolar anaphase formation (N1E-115 cells [2]; N1E-115, 200 μM CW069, DMSO control 0% (Figure 5A)) was 48%, the multipolar anaphases (N1E-115 cells [2]; N1E-115, siRNA plus 200 μM CW069 or DMSO, DMSO/control siRNA 11% (Figure 5D)) was 57% and the multipolar spindles (BT549 cells [3]) was “increased multipolar spindles”. The multipolar spindles (MDA-MB-231 cells) was “small but significant increase in multipolar spindles”, the bipolar spindle formation (MCF-7 cells [4]) was “did not perturb bipolar spindle formation” and the cell proliferation (BT549 cells [5]) was “antiproliferative effect”. The cell proliferation (MCF-7 cells [6]) was “does reduce their proliferation” and the cell proliferation (N1E-115 cells [7]) was “reduction in cell proliferation”.
